Source: patent US10150766B2, “P2X7 modulators” (Jansssen Pharmaceutica NV, priority 2014, dated 2018)
pIC50: −log10 of the molar value. Where two headings read alike, the source gives them in different places.

What was measured:
rat P2X7 = rat P2X7 (Rattus norvegicus (Rat), UniProt Q64663); assay: P2X7 antagonism in recombinant rat P2X7 cells (column headed P2X7 Rat IC50); type: binding
Method: The in vitro affinity of the compounds of the invention for the rat and human P2X7 receptor was determined using a human peripheral blood mononuclear cells (PBMCs), a human whole blood assay, a Ca^2+ flux and radioligand binding assay in recombinant human P2X7 cells and recombinant rat P2X7 cells. […] The data represented in Tables 2 may represent a value from a single determination or when the experiment was run more than once, the data represents the average from between 2-12 runs.
P2X7 Antagonism in Recombinant Human P2X7 Cells or Recombinant Rat P2X7 Cells: […]

P2X7 [1] = target: T1, P2X7 (Homo sapiens (Human), UniProt Q99572); assay: P2X7 antagonism in human whole blood, IL-1β release (LPS + Bz-ATP, ELISA); type: cell-based; conditions: LPS 30 ng/ml + Bz-ATP 1 mM; for pIC50: read-out: Human Whole Blood IC50; for IC50: Human Whole Blood IC50 (μM)
T1 sequence (Q99572 whole entry): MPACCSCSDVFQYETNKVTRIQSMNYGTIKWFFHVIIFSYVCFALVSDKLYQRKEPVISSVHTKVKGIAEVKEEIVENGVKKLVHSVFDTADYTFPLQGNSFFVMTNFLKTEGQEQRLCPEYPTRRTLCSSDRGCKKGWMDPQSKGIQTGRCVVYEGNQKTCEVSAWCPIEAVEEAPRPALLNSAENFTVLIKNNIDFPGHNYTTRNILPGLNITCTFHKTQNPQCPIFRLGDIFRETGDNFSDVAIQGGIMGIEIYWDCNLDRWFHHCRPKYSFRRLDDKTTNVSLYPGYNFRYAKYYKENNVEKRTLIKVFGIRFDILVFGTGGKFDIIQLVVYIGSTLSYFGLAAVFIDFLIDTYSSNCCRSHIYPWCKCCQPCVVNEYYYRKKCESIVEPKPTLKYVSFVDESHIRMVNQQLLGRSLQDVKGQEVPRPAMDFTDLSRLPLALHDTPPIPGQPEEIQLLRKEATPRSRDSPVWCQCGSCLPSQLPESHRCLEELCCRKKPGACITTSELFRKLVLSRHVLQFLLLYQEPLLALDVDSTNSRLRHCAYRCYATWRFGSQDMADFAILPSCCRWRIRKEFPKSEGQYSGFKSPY
Method: (§1) P2X7 Antagonism in Human Peripheral Blood Mononuclear Cells (PBMCs) and Human Whole Blood.
(§2) Human blood was collected using a blood donor program. PBMCs were isolated from blood using a Ficoll density gradient technique. Briefly, blood was laid on Ficoll solution and centrifuged at ROOM TEMPERATURE for 20 minutes at 2000 rpm. The buffy layer (between red blood cells and plasma) was carefully collected by aspiration, washed with PBS and centrifuged again at 1500 rpm for 15 minutes. The resulting cell pellet was washed and plated on 96 well-plates for experiments. For the Human Whole Blood experiments, 150 μl of human blood was plated on 96 well-plates. Lipopolysaccharide (LPS) (30 ng/ml) was added to each well and incubated for 1 hour. Test compounds were then added and incubated for 30 minutes. The P2X7 agonist, 2′(3′)-O-(4-benzoylbenzoyl) adenosine 5′-triphosphate (Bz-ATP) was then added at a final concentration of 0.5 mM (PBMC) or 1 mM (blood). Cells were incubated for an additional 1.5 hours. At that point, supernatant was collected and stored for IL-1β assay using manufacturer's protocol for enzyme-linked immunosorbant assay (ELISA). Data was expressed as percent control, where control is defined as the difference in IL-1β release in LPS+Bz-ATP samples and LPS only samples. Data was plotted as response (% control) versus concentration to generate IC50 values. […] Data are analyzed and graphed on Graphpad Prism 5. For analysis, each concentration point is averaged from triplicate values and the averaged values are plotted on Graphpad Prism. The IC50 for each compound is then uploaded into 3DX.

P2X7 [2] = target: T1, P2X7; assay: P2X7 antagonism in human peripheral blood mononuclear cells (PBMCs), IL-1β release (LPS + Bz-ATP, ELISA); type: cell-based; conditions: P2X7, 10 μM test compound, LPS 30 ng/ml + Bz-ATP 0.5 mM, read-out: PBMC @10 μM (% control)
Method: as §1, §2

Sequence of rat P2X7 (Q64663 whole entry): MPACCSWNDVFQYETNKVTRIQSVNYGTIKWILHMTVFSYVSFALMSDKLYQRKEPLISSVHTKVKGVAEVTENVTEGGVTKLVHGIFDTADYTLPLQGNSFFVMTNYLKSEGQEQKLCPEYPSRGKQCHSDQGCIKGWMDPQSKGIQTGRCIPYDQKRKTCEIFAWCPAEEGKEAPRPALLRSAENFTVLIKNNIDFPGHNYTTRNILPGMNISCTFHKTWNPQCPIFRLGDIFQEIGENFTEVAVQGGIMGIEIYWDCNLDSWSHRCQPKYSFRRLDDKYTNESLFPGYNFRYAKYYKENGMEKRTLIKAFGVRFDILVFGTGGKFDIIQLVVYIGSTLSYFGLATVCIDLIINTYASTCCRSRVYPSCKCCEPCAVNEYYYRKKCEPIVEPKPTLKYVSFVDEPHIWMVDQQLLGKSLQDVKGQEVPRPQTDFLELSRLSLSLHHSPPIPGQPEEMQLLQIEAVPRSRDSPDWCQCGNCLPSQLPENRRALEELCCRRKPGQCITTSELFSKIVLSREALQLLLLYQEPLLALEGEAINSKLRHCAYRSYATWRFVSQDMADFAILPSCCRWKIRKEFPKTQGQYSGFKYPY

Compound	pIC50 (rat P2X7)	pIC50 (P2X7 [1])	remaining activity at 10 µM (P2X7 [2]) [%]	IC50 (P2X7 [1]) [µM]
Cc1nc(-c2cnn(C)c2)c2c(n1)[C@H]1CCC[C@@H](C2)N1C(=O)c1ccc(F)c(Cl)c1Cl [Example 33, (2,3-dichloro-4-fluorophenyl)((6S,10R)-2-methyl-4-(1-methyl-1H-pyrazol-4-yl)-5,6,7,8,9,10-hexahydro-6,10-epiminocycloocta[d]pyrimidin-11-yl)methanone]	< 5.00	5.87	1.2	
Cc1nc(-c2cnn(C)c2)c2c(n1)[C@H]1CCC[C@@H](C2)N1C(=O)c1ccnc(C(F)(F)F)c1Cl [Example 32, (3-chloro-2-(trifluoromethyl)pyridin-4-yl)((6S,10R)-2-methyl-4-(1-methyl-1H-pyrazol-4-yl)-5,6,7,8,9,10-hexahydro-6,10-epiminocycloocta[d]pyrimidin-11-yl)methanone]	< 5.00		4.8	1.58
Cc1nc(-c2ccn[nH]2)c2c(n1)[C@@H]1CCC[C@H](C2)N1C(=O)c1ccc(F)c(Cl)c1Cl [Example 4, (2,3-dichloro-4-fluorophenyl)((6R,10S)-2-methyl-4-(1H-pyrazol-5-yl)-5,6,7,8,9,10-hexahydro-6,10-epiminocycloocta[d]pyrimidin-11-yl)methanone]	6.02		25.4	1.36
Cc1nc(-c2cnn(C)c2)c2c(n1)[C@H]1CCC[C@@H](C2)N1C(=O)c1ccc(Cl)c(F)c1Cl [Example 35, (2,4-dichloro-3-fluorophenyl)((6S,10R)-2-methyl-4-(1-methyl-1H-pyrazol-4-yl)-5,6,7,8,9,10-hexahydro-6,10-epiminocycloocta[d]pyrimidin-11-yl)methanone]	< 5.00	5.64	9.1	
Cc1nc(-c2ccn[nH]2)c2c(n1)[C@@H]1CCC[C@H](C2)N1C(=O)c1ccc(F)cc1Cl [Example 9, (2-chloro-4-fluorophenyl)((6R,10S)-2-methyl-4-(1H-pyrazol-5-yl)-5,6,7,8,9,10-hexahydro-6,10-epiminocycloocta[d]pyrimidin-11-yl)methanone]	< 5.00	5.53	91.3	
Cc1nc(-c2cnn(C)c2)c2c(n1)[C@H]1CCC[C@@H](C2)N1C(=O)c1cccc(Cl)c1Cl [Example 31, (2,3-dichlorophenyl)((6S,10R)-2-methyl-4-(1-methyl-1H-pyrazol-4-yl)-5,6,7,8,9,10-hexahydro-6,10-epiminocycloocta[d]pyrimidin-11-yl)methanone]	< 5.00		-0.9	2.67
Cc1nc(-c2ccn[nH]2)c2c(n1)[C@@H]1CCC[C@H](C2)N1C(=O)c1cccc(C(F)(F)F)c1C [Example 6, (2-methyl-3-(trifluoromethyl)phenyl)((6R,10S)-2-methyl-4-(1H-pyrazol-5-yl)-5,6,7,8,9,10-hexahydro-6,10-epiminocycloocta[d]pyrimidin-11-yl)methanone]	6.01		18.1	1.13
Cc1nc(-c2cnn(C)c2)c2c(n1)[C@H]1CCC[C@@H](C2)N1C(=O)c1cccc(C(F)(F)F)c1C [Example 39, (2-methyl-3-(trifluoromethyl)phenyl)((6S,10R)-2-methyl-4-(1-methyl-1H-pyrazol-4-yl)-5,6,7,8,9,10-hexahydro-6,10-epiminocycloocta[d]pyrimidin-11-yl)methanone]	< 5.00		1	1.09
Cc1nc(-c2ccc(F)cc2)c2c(n1)[C@@H]1CCC[C@H](C2)N1C(=O)c1ccc(F)cc1Cl [Example 16, (2-chloro-4-fluorophenyl)((6R,10S)-4-(4-fluorophenyl)-2-methyl-5,6,7,8,9,10-hexahydro-6,10-epiminocycloocta[d]pyrimidin-11-yl)methanone]	< 5.00		84.8	7.38
Cc1nc(-c2ccn[nH]2)c2c(n1)[C@@H]1CCC[C@H](C2)N1C(=O)c1ccc(Cl)cc1F [Example 12, (4-chloro-2-fluorophenyl)((6R,10S)-2-methyl-4-(1H-pyrazol-5-yl)-5,6,7,8,9,10-hexahydro-6,10-epiminocycloocta[d]pyrimidin-11-yl)methanone]	< 5.00	5.21	92.6	
Cc1nc(-c2cnn(C)c2)c2c(n1)[C@H]1CCC[C@@H](C2)N1C(=O)c1cccc(C(F)(F)F)c1F [Example 34, (2-fluoro-3-(trifluoromethyl)phenyl)((6S,10R)-2-methyl-4-(1-methyl-1H-pyrazol-4-yl)-5,6,7,8,9,10-hexahydro-6,10-epiminocycloocta[d]pyrimidin-11-yl)methanone]	< 5.00		3.3	8.59
Cc1nc(-c2ccnn2C)c2c(n1)[C@H]1CCC[C@@H](C2)N1C(=O)c1ccnc(C(F)(F)F)c1Cl [Example 60, (3-chloro-2-(trifluoromethyl)pyridin-4-yl)((6S,10R)-2-methyl-4-(1-methyl-1H-pyrazol-5-yl)-5,6,7,8,9,10-hexahydro-6,10-epiminocycloocta[d]pyrimidin-11-yl)methanone]	6.10		21.4	1.98
Cc1nc(-c2cnn(C)c2)c2c(n1)[C@H]1CCC[C@@H](C2)N1C(=O)c1ccc(Cl)cc1F [Example 38, (4-chloro-2-fluorophenyl)((6S,10R)-2-methyl-4-(1-methyl-1H-pyrazol-4-yl)-5,6,7,8,9,10-hexahydro-6,10-epiminocycloocta[d]pyrimidin-11-yl)methanone]	< 5.00	< 5.00	46.8	
Cc1nc(-c2ccc(F)cc2)c2c(n1)[C@@H]1CCC[C@H](C2)N1C(=O)c1cccc(C(F)(F)F)c1Cl [Example 13, (2-chloro-3-(trifluoromethyl)phenyl)((6R,10S)-4-(4-fluorophenyl)-2-methyl-5,6,7,8,9,10-hexahydro-6,10-epiminocycloocta[d]pyrimidin-11-yl)methanone]	7.05		22.2	5.08
Cc1nc(-c2cnn(C)c2)c2c(n1)[C@H]1CCC[C@@H](C2)N1C(=O)c1ccnc(C(F)(F)F)c1F [Example 37, (3-fluoro-2-(trifluoromethyl)pyridin-4-yl)((6S,10R)-2-methyl-4-(1-methyl-1H-pyrazol-4-yl)-5,6,7,8,9,10-hexahydro-6,10-epiminocycloocta[d]pyrimidin-11-yl)methanone]	< 5.00	4.68	13.3	
Cc1nc(-c2ccn[nH]2)c2c(n1)[C@@H]1CCC[C@H](C2)N1C(=O)c1ccnc(C(F)(F)F)c1Cl [Example 7, (3-chloro-2-(trifluoromethyl)pyridin-4-yl)((6R,10S)-2-methyl-4-(1H-pyrazol-5-yl)-5,6,7,8,9,10-hexahydro-6,10-epiminocycloocta[d]pyrimidin-11-yl)methanone]	6.04		20.5	2.35
